Results from patent US9932381B2, “Exendin-4 derivatives as selective glucagon receptor agonists” (priority 2014, dated 2018).
pEC50: −log10 of the molar value. Non-standard residues stand in square brackets, D forms with d. Residues, ends and D or L forms follow the SMILES beside them. Ala(4-thiazolyl) = N[C@@H](Cc1cscn1)C(=O)O; 1Nal = N[C@@H](Cc1cccc2ccccc12)C(=O)O; Phe(2-F) = N[C@@H](Cc1ccccc1F)C(=O)O; Nle = CCCC[C@H](N)C(=O)O

Each compound was assayed against T1, human glucagon receptor (hGLUC R) (Homo sapiens, UniProt P47871) (assay: cAMP response (HTRF) of HEK-293 cells stably expressing human glucagon receptor). Details: Table 4; read-out: EC50 hGLUC R.
T1 construct: expressed in transfected cells; host or cells: HEK-293
Assay type: cell-based
Protocol: cAMP content of cells was determined using a kit from Cisbio Corp. (cat. no. 62AM4PEC) based on HTRF (Homogenous Time Resolved Fluorescence). For preparation, cells were split into T175 culture flasks and grown overnight to near confluency in medium (DMEM/10% FBS). Medium was then removed and cells washed with PBS lacking calcium and magnesium, followed by proteinase treatment with accutase (Sigma-Aldrich cat. no. A6964). Detached cells were washed and resuspended in assay buffer (1×HBSS; 20 mM HEPES, 0.1% BSA, 2 mM IBMX) and cellular density determined. They were then diluted to 400000 cells/ml and 25 μl-aliquots dispensed into the wells of 96-well plates. For measurement, 25 μl of test compound in assay buffer was added to the wells, followed by incubation for 30 minutes at room temperature.

T1 sequence (P47871 26-477): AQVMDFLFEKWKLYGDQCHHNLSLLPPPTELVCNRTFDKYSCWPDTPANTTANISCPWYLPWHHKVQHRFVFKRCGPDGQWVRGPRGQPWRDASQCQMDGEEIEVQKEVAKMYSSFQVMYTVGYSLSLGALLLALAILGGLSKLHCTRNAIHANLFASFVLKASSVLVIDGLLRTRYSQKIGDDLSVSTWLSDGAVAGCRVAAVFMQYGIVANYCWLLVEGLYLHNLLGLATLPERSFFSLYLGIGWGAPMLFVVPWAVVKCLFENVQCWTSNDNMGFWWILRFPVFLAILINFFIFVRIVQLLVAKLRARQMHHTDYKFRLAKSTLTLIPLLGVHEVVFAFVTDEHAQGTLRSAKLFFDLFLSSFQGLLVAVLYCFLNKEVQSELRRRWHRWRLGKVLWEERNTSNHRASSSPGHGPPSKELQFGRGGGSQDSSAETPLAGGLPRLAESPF

Row | pEC50 | Compound
1 | 12.00 | CC[C@H](C)[C@H](NC(=O)[C@H](Cc1ccccc1)NC(=O)[C@H](CC(=O)O)NC(=O)[C@H](CCC(N)=O)NC(=O)[C@H](C)NC(=O)[C@H](CCCNC(=N)N)NC(=O)[C@H](CCCNC(=N)N)NC(=O)[C@H](CO)NC(=O)[C@H](CCC(=O)O)NC(=O)[C@H](CC(C)C)NC(=O)[C@H](CCC(N)=O)NC(=O)[C@H](CCCCN)NC(=O)[C@H](CO)NC(=O)[C@H](Cc1cccc2ccccc12)NC(=O)[C@H](CC(=O)O)NC(=O)[C@H](CO)NC(=O)[C@@H](NC(=O)[C@H](Cc1ccccc1)NC(=O)[C@@H](NC(=O)CNC(=O)[C@H](CCC(N)=O)NC(=O)[C@H](CO)NC(=O)[C@@H](N)Cc1cscn1)[C@@H](C)O)[C@@H](C)O)C(=O)N[C@@H](CCC(=O)O)C(=O)N[C@@H](Cc1c[nH]c2ccccc12)C(=O)N[C@@H](CC(C)C)C(=O)N[C@@H](CC(C)C)C(=O)N[C@@H](C)C(=O)N[C@H](C(=O)NCC(=O)N1CCC[C@H]1C(=O)N[C@@H](CCC(=O)O)C(=O)N[C@@H](CO)C(=O)NCC(=O)N[C@@H](C)C(=O)N1CCC[C@H]1C(=O)N1CCC[C@H]1C(=O)N1CCC[C@H]1C(=O)N[C@@H](CO)C(=O)O)[C@@H](C)O [SEQ ID NO 22, Tza-S-Q-G-T-F-T-S-D-1Nal-SKQLESRRAQDFIEWLLATGPESGAPPPS-OH] (H-[Ala(4-thiazolyl)]SQGTFTSD[1Nal]SKQLESRRAQDFIEWLLATGPESGAPPPS-OH; N-terminus assumed)
2 | 11.51 | CCCC[C@H](NC(=O)[C@H](CCC(N)=O)NC(=O)[C@H](CCCCN)NC(=O)[C@H](CO)NC(=O)[C@H](Cc1ccccc1)NC(=O)[C@H](CC(=O)O)NC(=O)[C@H](CO)NC(=O)[C@@H](NC(=O)[C@H](Cc1ccccc1)NC(=O)[C@@H](NC(=O)CNC(=O)[C@H](CCC(N)=O)NC(=O)[C@H](CO)NC(=O)[C@@H](N)Cc1cscn1)[C@@H](C)O)[C@@H](C)O)C(=O)N[C@@H](CCC(=O)O)C(=O)N[C@@H](CO)C(=O)N[C@@H](CCCNC(=N)N)C(=O)N[C@@H](CCCNC(=N)N)C(=O)N[C@@H](C)C(=O)N[C@@H](CCC(N)=O)C(=O)N[C@@H](CC(=O)O)C(=O)N[C@@H](Cc1ccccc1)C(=O)N[C@H](C(=O)N[C@@H](CCC(=O)O)C(=O)N[C@@H](Cc1c[nH]c2ccccc12)C(=O)N[C@@H](CC(C)C)C(=O)N[C@@H](CC(C)C)C(=O)N[C@@H](C)C(=O)N[C@H](C(=O)NCC(=O)N1CCC[C@H]1C(=O)N[C@@H](CCC(=O)O)C(=O)N[C@@H](CO)C(=O)NCC(=O)N[C@@H](C)C(=O)N1CCC[C@H]1C(=O)N1CCC[C@H]1C(=O)N1CCC[C@H]1C(=O)N[C@@H](CO)C(=O)O)[C@@H](C)O)[C@@H](C)CC [SEQ ID NO 13, Tza-S-Q-G-T-F-T-S-D-F-S-K-Q-Nle-ESRRAQDFIEWLLATGPESGAPPPS-OH] (H-[Ala(4-thiazolyl)]SQGTFTSDFSKQ[Nle]ESRRAQDFIEWLLATGPESGAPPPS-OH; N-terminus assumed)
3 | 12.00 | CCCC[C@H](NC(=O)[C@H](CCC(N)=O)NC(=O)[C@H](CCCCN)NC(=O)[C@H](CO)NC(=O)[C@H](Cc1ccc(O)cc1)NC(=O)[C@H](CC(=O)O)NC(=O)[C@H](CO)NC(=O)[C@@H](NC(=O)[C@H](Cc1ccccc1)NC(=O)[C@@H](NC(=O)CNC(=O)[C@H](CCC(N)=O)NC(=O)[C@H](CO)NC(=O)[C@@H](N)Cc1cscn1)[C@@H](C)O)[C@@H](C)O)C(=O)N[C@@H](CCC(=O)O)C(=O)N[C@@H](CO)C(=O)N[C@@H](CCCNC(=N)N)C(=O)N[C@@H](CCCNC(=N)N)C(=O)N[C@@H](C)C(=O)N[C@@H](CCC(N)=O)C(=O)N[C@@H](CCC(=O)O)C(=O)N[C@@H](Cc1ccccc1)C(=O)N[C@H](C(=O)N[C@@H](CCC(=O)O)C(=O)N[C@@H](Cc1c[nH]c2ccccc12)C(=O)N[C@@H](CC(C)C)C(=O)N[C@@H](CC(C)C)C(=O)N[C@@H](C)C(=O)N[C@H](C(=O)NCC(=O)N1CCC[C@H]1C(=O)N[C@@H](CCC(=O)O)C(=O)N[C@@H](CO)C(=O)NCC(=O)N[C@@H](C)C(=O)N1CCC[C@H]1C(=O)N1CCC[C@H]1C(=O)N1CCC[C@H]1C(=O)N[C@@H](CO)C(=O)O)[C@@H](C)O)[C@@H](C)CC [SEQ ID NO 17, Tza-S-Q-G-T-F-T-S-D-Y-S-K-Q-Nle-ESRRAQEFIEWLLATGPESGAPPPS-OH]
4 | 11.51 | CCCC[C@H](NC(=O)[C@H](CCC(N)=O)NC(=O)[C@H](CCCCN)NC(=O)[C@H](CO)NC(=O)[C@H](Cc1ccccc1F)NC(=O)[C@H](CC(=O)O)NC(=O)[C@H](CO)NC(=O)[C@@H](NC(=O)[C@H](Cc1ccccc1)NC(=O)[C@@H](NC(=O)CNC(=O)[C@H](CCC(N)=O)NC(=O)[C@H](CO)NC(=O)[C@@H](N)Cc1cscn1)[C@@H](C)O)[C@@H](C)O)C(=O)N[C@@H](CCC(=O)O)C(=O)N[C@@H](CO)C(=O)N[C@@H](CCCNC(=N)N)C(=O)N[C@@H](CCCNC(=N)N)C(=O)N[C@@H](C)C(=O)N[C@@H](CCC(N)=O)C(=O)N[C@@H](CC(=O)O)C(=O)N[C@@H](Cc1ccccc1)C(=O)N[C@H](C(=O)N[C@@H](CCC(=O)O)C(=O)N[C@@H](Cc1c[nH]c2ccccc12)C(=O)N[C@@H](CC(C)C)C(=O)N[C@@H](CC(C)C)C(=O)N[C@@H](C)C(=O)N[C@H](C(=O)NCC(=O)N1CCC[C@H]1C(=O)N[C@@H](CCC(=O)O)C(=O)N[C@@H](CO)C(=O)NCC(=O)N[C@@H](C)C(=O)N1CCC[C@H]1C(=O)N1CCC[C@H]1C(=O)N1CCC[C@H]1C(=O)N[C@@H](CO)C(=O)O)[C@@H](C)O)[C@@H](C)CC [SEQ ID NO 18, Tza-S-Q-G-T-F-T-S-D-2FPhe-S-K-Q-Nle-ESRRAQDFIEWLLATGPESGAPPPS-OH] (H-[Ala(4-thiazolyl)]SQGTFTSD[Phe(2-F)]SKQ[Nle]ESRRAQDFIEWLLATGPESGAPPPS-OH)

Same assay, conditions: Table 5, Tza vs. His in position 1; read-out: EC50 hGlucagon-R

Row | pEC50 | Compound
5 | 11.85 | CCCC[C@H](NC(=O)[C@H](CCC(N)=O)NC(=O)[C@H](CCCCN)NC(=O)[C@H](CO)NC(=O)[C@H](CC(C)C)NC(=O)[C@H](CC(=O)O)NC(=O)[C@H](CO)NC(=O)[C@@H](NC(=O)[C@H](Cc1ccccc1)NC(=O)[C@@H](NC(=O)CNC(=O)[C@H](CCC(N)=O)NC(=O)[C@H](CO)NC(=O)[C@@H](N)Cc1c[nH]cn1)[C@@H](C)O)[C@@H](C)O)C(=O)N[C@@H](CCC(=O)O)C(=O)N[C@@H](CO)C(=O)N[C@@H](CCCNC(=N)N)C(=O)N[C@@H](CCCNC(=N)N)C(=O)N[C@@H](C)C(=O)N[C@@H](CCC(N)=O)C(=O)N[C@@H](CCC(=O)O)C(=O)N[C@@H](Cc1ccccc1)C(=O)N[C@H](C(=O)N[C@@H](CCC(=O)O)C(=O)N[C@@H](Cc1c[nH]c2ccccc12)C(=O)N[C@@H](CC(C)C)C(=O)N[C@@H](CC(C)C)C(=O)N[C@@H](C)C(=O)N[C@H](C(=O)NCC(=O)N1CCC[C@H]1C(=O)N[C@@H](CCC(=O)O)C(=O)N[C@@H](CO)C(=O)NCC(=O)N[C@@H](C)C(=O)N1CCC[C@H]1C(=O)N1CCC[C@H]1C(=O)N1CCC[C@H]1C(=O)N[C@@H](CO)C(=O)O)[C@@H](C)O)[C@@H](C)CC [SEQ ID NO 36, H-S-Q-G-T-F-T-S-D-L-S-K-Q-Nle-ESRRAQEFIEWLLATGPESGAPPPS-OH, reference compound] (H-HSQGTFTSDLSKQ[Nle]ESRRAQEFIEWLLATGPESGAPPPS-OH)
6 | 11.85 | H-HSQGTFTSDLSKQLESRRAQEFIEWLLATGPESGAPPPS-OH [SEQ ID NO 34, HSQGTFTSDLSKQLESRRAQEFIEWLLATGPESGAPPPS-OH, reference compound]
7 | 12.00 | CC[C@H](C)[C@H](NC(=O)[C@H](Cc1ccccc1)NC(=O)[C@H](CCC(=O)O)NC(=O)[C@H](CCC(N)=O)NC(=O)[C@H](C)NC(=O)[C@H](CCCNC(=N)N)NC(=O)[C@H](CCCNC(=N)N)NC(=O)[C@H](CO)NC(=O)[C@H](CCC(=O)O)NC(=O)[C@H](CC(C)C)NC(=O)[C@H](CCC(N)=O)NC(=O)[C@H](CCCCN)NC(=O)[C@H](CO)NC(=O)[C@H](Cc1ccc(O)cc1)NC(=O)[C@H](CC(=O)O)NC(=O)[C@H](CO)NC(=O)[C@@H](NC(=O)[C@H](Cc1ccccc1)NC(=O)[C@@H](NC(=O)CNC(=O)[C@H](CCC(N)=O)NC(=O)[C@H](CO)NC(=O)[C@@H](N)Cc1c[nH]cn1)[C@@H](C)O)[C@@H](C)O)C(=O)N[C@@H](CCC(=O)O)C(=O)N[C@@H](Cc1c[nH]c2ccccc12)C(=O)N[C@@H](CC(C)C)C(=O)N[C@@H](CC(C)C)C(=O)N[C@@H](C)C(=O)NCC(=O)NCC(=O)N1CCC[C@H]1C(=O)N[C@@H](CCC(=O)O)C(=O)N[C@@H](CO)C(=O)NCC(=O)N[C@@H](C)C(=O)N1CCC[C@H]1C(=O)N1CCC[C@H]1C(=O)N1CCC[C@H]1C(=O)N[C@@H](CO)C(=O)O [SEQ ID NO 28, HSQGTFTSDYSKQLESRRAQEFIEWLLAGGPESGAPPPS-OH, reference compound]
